Results published in PubChem BioAssay (NCI).
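All cell lines were grown in 96-well plates and treated with compound for 48 hours. Abbreviation: GI50, concentration required for 50% inhibition of growth. At the TGI there is no net growth.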

Columns and labels:
Experiment in all cases: NCI-60 cell line screen, 48 h
NCI-H522 lung = tested on: NCI-H522 lung
SK-OV-3 ovarian = tested on: SK-OV-3 ovarian
CCRF-CEM leukemia = tested on: CCRF-CEM leukemia
SK-MEL-5 melanoma = tested on: SK-MEL-5 melanoma
NCI/ADR-RES ovarian = tested on: NCI/ADR-RES ovarian
M14 melanoma = tested on: M14 melanoma
ACHN renal = tested on: ACHN renal
UO-31 renal = tested on: UO-31 renal

Compound | TGI (NCI-H522 lung) | TGI (SK-OV-3 ovarian) | TGI (CCRF-CEM leukemia) | TGI (SK-MEL-5 melanoma) | TGI (NCI/ADR-RES ovarian) | TGI (M14 melanoma) | TGI (ACHN renal) | TGI (UO-31 renal) | GI50 (NCI-H522 lung) | GI50 (SK-OV-3 ovarian) | GI50 (NCI/ADR-RES ovarian) | GI50 (ACHN renal)
COc1ccc([C@H]2[C@H]3COC(=O)[C@H]3C(C#N)=C3Sc4ccccc4N32)cc1 | > 68.2 µM | > 100 µM | 47.7 µM | > 57.3 µM | > 62.5 µM | > 100 µM | > 100 µM | > 100 µM |  |  |  | 
CC1=NNC(=O)C1C1C(=O)NN=C(c2c[nH]c3ccccc23)C1Br (stereo not given) | 92.4 µM | > 100 µM | 65.5 µM | > 100 µM | > 100 µM | > 100 µM | > 100 µM | > 100 µM |  |  |  | 
CC(=O)Nc1ccc2c(C)c3c(nc2n1)[nH]c1ccccc13 | 53.2 µM |  | > 100 µM | 28 µM | 62.1 µM | 82.2 µM | 59.6 µM | > 100 µM |  |  |  | 
CN(C)CCNc1ccc2c(=O)n(CCN(C)C)c(=O)n3c4ccc(O)cc4c(=O)c1c23 | 0.221 µM | 1.04 µM | < 0.01 µM | 0.211 µM | 9.39 µM | 1.86 µM | < 0.01 µM | 0.282 µM |  |  |  | 
S=C1c2ccc(Cl)cc2-n2cnnc2C2CSCN12 (stereo not given) | > 100 µM | > 100 µM | > 100 µM | > 100 µM | > 100 µM | > 100 µM | > 100 µM | > 100 µM |  |  |  | 
COc1cccc(N2C(=O)CSC2c2cccc(Oc3ccccc3)c2)c1 (stereo not given) | 20.6 µM | > 100 µM | > 100 µM | 16.9 µM | 40.4 µM | 51 µM | 41 µM | > 100 µM |  |  |  | 
Cc1ccc(C(=N)c2ccccc2Cc2cccc3ccccc23)c2ccccc12 | > 100 µM | > 100 µM | > 100 µM | > 100 µM | > 100 µM | > 100 µM | > 100 µM | > 100 µM |  |  |  | 
COC1CC(N)(c2ccccc2)C(O)C(C)O1 (stereo not given) | > 100 µM | > 100 µM | > 100 µM | > 100 µM | > 100 µM | > 100 µM | > 100 µM | > 100 µM |  |  |  | 
COC(=O)C1(NC(=O)C(CC(=O)OCc2ccccc2)NC(=O)OCc2ccccc2)CCCCCC1 (stereo not given) | > 100 µM | 94.6 µM |  | 28.8 µM | 82.5 µM | > 100 µM | > 100 µM | > 100 µM |  |  |  | 
CN1CCC(CNc2cc(C3(C(=O)Nc4cc(C(=O)Nc5ccc(Cl)c(C(F)(F)F)c5)ccc4F)CC3)ncn2)CC1 | 4.55 µM | 4.58 µM |  |  | 36.6 µM |  | 4.98 µM |  | 2.01 µM | 2.17 µM | 5.46 µM | 2.16 µM
C/C(CC(O)(C(F)(F)F)C(F)(F)F)=N\NC(N)=O | > 10 µM | > 10 µM | > 10 µM | > 10 µM | > 10 µM | > 10 µM | > 10 µM | > 10 µM |  |  |  | 
O=C(Nc1ccccc1)N(C1=NCC(CI)S1)c1ccc(F)c(F)c1 (stereo not given) |  | > 100 µM | 75.9 µM | 37.2 µM | > 100 µM |  | > 100 µM | > 100 µM |  |  |  | 
COc1cc2c(c3c1c(=O)c1ccccc1n3C)C=CC1(CCCC1)O2 | 33.5 µM | 38.4 µM | 53.9 µM | 25.6 µM | > 100 µM | 29.1 µM | 32.7 µM |  |  |  |  | 
O=C1C=CC(=O)c2c1ccc1c3ccccc3n(Cc3ccc([N+](=O)[O-])cc3)c21 | 55.4 µM | > 100 µM | 40.8 µM | > 100 µM | > 100 µM | > 100 µM | > 100 µM | > 100 µM |  |  |  | 
Cc1ccc(S(=O)(=O)NC(=O)Nc2nnc(S(N)(=O)=O)s2)cc1 |  | > 100 µM | > 100 µM | > 100 µM | > 100 µM | > 100 µM | > 100 µM | > 100 µM |  |  |  | 
Cn1c(=O)c2c(nc3n(CC(O)CCl)c(=O)ccn23)n(C)c1=O (stereo not given) | > 100 µM | > 100 µM | > 100 µM | > 100 µM | > 100 µM | > 100 µM | > 100 µM | > 100 µM |  |  |  | 
CCOC(=O)c1c(C)n(Cc2ccc(Cl)cc2Cl)c2c1cc(O)c1[nH]c3c(c12)CCCC3 | 38.8 µM | > 100 µM | 77.1 µM | 44.5 µM | 43.4 µM | 86.3 µM | 61.2 µM | 51.3 µM |  |  |  | 
N#CCCN(CCC#N)c1ccc(/C=C2\N=C(c3ccccc3)N(c3ccc(F)cc3)C2=O)cc1 |  | > 100 µM |  | > 100 µM | > 100 µM | > 100 µM | > 100 µM | > 100 µM |  |  |  | 
Cc1ccc(Nc2nc3[nH]ccc3c(=O)[nH]2)cc1 | > 100 µM | > 100 µM | > 100 µM | > 100 µM | > 100 µM | > 100 µM | > 100 µM | > 100 µM |  |  |  | 
O=c1[nH]/c(=C/c2ccc(OCc3ccccc3)cn2)c(=O)[nH]/c1=C/c1ccccc1 |  | > 100 µM |  |  | 0.229 µM | > 100 µM | > 100 µM | > 100 µM |  |  |  | 
CN(C)CC(O)c1ccc(Cl)c2ccccc12 (stereo not given) | > 100 µM | > 100 µM | 53.8 µM | 31.4 µM | > 100 µM | 33 µM | > 100 µM | > 62.2 µM |  |  |  | 
CSc1ncc2c(n1)C(C#N)C1Sc3ccccc3N1C2=O (stereo not given) | > 100 µM | > 100 µM |  | > 100 µM | > 100 µM | > 100 µM | > 100 µM | > 100 µM |  |  |  | 
O=[N+]([O-])c1ccccc1OCCOc1ccccc1[N+](=O)[O-] | > 100 µM | > 100 µM | > 100 µM | > 100 µM | > 100 µM | > 100 µM | > 100 µM | > 100 µM |  |  |  | 
C=CCC1(C#N)C(=S)NC2=C(C(=O)CC(C)(C)C2)C1c1ccccc1 (stereo not given) |  |  | > 100 µM | > 100 µM | > 100 µM | > 100 µM |  | > 100 µM |  |  |  | 
Nc1n(CC(=O)c2ccccc2)nc2sc(-c3ccccc3)n[n+]12 | 34.4 µM | 92 µM | > 100 µM | 22 µM | > 100 µM | > 100 µM | 29.6 µM | 40.3 µM |  |  |  | 
